One assay deals with GLS1 (Homo sapiens (Human), UniProt O94925). As to the kind of experiment: GLS Enzyme Potency Assay (Glutamate Oxidase/AmplexRed coupled assay). Format: biochemical. The source says:
(§1) The following assays were used to measure the effects of the compounds described herein: a) GLS Enzyme Potency Assay; b) GLS Cell Potency Assay; c) GLS Cell Proliferation Assay. During the description of the assays, generally: • i. The following abbreviations have been used: CO2=Carbon dioxide; DMEM=Dulbecco's Modified Eagle Medium; DMSO=Dimethyl sulphoxide; EDTA=Ethylenediaminetetraacetic acid; EGTA=Ethylene glycol tetraacetic acid; FCS=Foetal calf serum; h=Hour(s); NBS=Non-binding surface; SDS=Sodium dodecyl sulphate; TRIS=Tris(Hydroxymethyl)aminomethane. • ii. IC50 values were calculated using a smart fitting model in Genedata.
Assay a): GLS Enzyme Potency Assay
A Glutamate Oxidase/AmplexRed coupled assay was used to measure the ability of compounds to bind to and inhibit the activity of GLS1 in vitro. […] GLS1 was diluted to 2× working concentration and incubated at room temperature to allow the tetrameric/dimeric forms to reach steady state. Assay measurements were performed in buffer comprising 50 mM TRIS pH 7.8, 100 mM NaPO4, pH 7.8, 0.001% v/v Tween20. Purified recombinant GLS1 protein was diluted in assay buffer to 12 nM and pre-incubated at room temperature for 30 minutes. […] DMSO concentration was maintained at 2% by back filling with DMSO solution. 3 μL of diluted GLS1 protein (12 nM) was then dispensed into each well using a BioRaptr automated dispenser (Beckman-Coulter) and incubated for 15 minutes at room temperature. 3 μL of 100 mM glutamine diluted in assay buffer was then added and the reaction incubated at room temperature for 60 minutes. […] An artefact version of the assay where the 6His tagged GLS protein and glutamine were replaced with assay buffer was also used to rule out non specific effects on the assay components.

The next assay deals with NCI-H1703 cells. As to the kind of experiment: GLS Cell Proliferation Assay (NCI-H1703 cell proliferation). Format: cell-based.
Description: as §1
Assay c): GLS Cell Proliferation Assay
The ability of compounds to inhibit cell growth was measured using a 384 well plate NCI-H1703 cell proliferation assay. NCI-H1703 cells were grown in phenol red free RPMI1640, 10% FCS and 2 mM glutamine and seeded at a density of 750 cells per well in 40 μl of growth medium into clear-bottom 384 well assay plates (Corning product code 3712) and incubated for 24 h at 37° C., 5% CO2. […] DMSO concentration was maintained at 0.3% by back filling with DMSO solution. Plates were incubated for 5 days at 37° C., 5% CO2, Sytox Green and Saponin added to final concentration of 2 μM and 0.25% respectively and incubated for 6 h prior to analysis. […] IC50 values were calculated by curve fitting to max inhibition of day zero growth using GeneData software analysis.

Assay [1] deals with cellular GLS activity in PC3 cells (Homo sapiens (Human), UniProt O94925). As to the kind of experiment: GLS Cell Potency Assay (PC3 coupled assay measuring cellular glutamate depletion). Format: cell-based. The following applies: PC3 cells, 6 h incubation, glutamate depletion; read-out: Assay b) GLS cell MOA Mean IC50.
cellular GLS activity in PC3 cells, sequence (O94925 73-669): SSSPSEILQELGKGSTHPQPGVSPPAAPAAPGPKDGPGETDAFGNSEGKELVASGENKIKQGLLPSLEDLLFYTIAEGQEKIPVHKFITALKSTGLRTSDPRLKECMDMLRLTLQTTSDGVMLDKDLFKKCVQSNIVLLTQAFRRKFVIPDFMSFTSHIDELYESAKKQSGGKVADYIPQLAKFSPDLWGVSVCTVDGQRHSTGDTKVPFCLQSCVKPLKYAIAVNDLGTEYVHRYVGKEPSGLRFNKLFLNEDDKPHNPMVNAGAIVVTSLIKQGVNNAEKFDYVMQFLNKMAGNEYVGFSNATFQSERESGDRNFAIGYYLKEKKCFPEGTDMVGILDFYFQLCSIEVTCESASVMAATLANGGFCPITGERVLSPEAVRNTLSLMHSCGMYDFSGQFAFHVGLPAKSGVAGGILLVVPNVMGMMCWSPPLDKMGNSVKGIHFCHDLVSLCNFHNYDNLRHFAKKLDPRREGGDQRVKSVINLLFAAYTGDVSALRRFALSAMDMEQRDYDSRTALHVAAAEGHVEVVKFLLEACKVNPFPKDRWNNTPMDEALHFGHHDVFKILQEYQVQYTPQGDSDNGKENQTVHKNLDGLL
Description: as §1
Assay b): GLS Cell Potency Assay
Compounds were assessed for their potential to inhibit cellular GLS activity by use of a PC3 coupled assay measuring cellular glutamate depletion. […] DMSO concentration was maintained at 0.3% by back filling with DMSO solution. PC3 cells were grown in phenol free DMEM, 10% dialyzed FCS, 2 mM glutamine and following dispersal by trypsinisation were plated at 5.6×10^3 cells per well in 40 μl of growth medium directly into the 384 well assay plates containing dispensed compound. After incubation for 6 h at 37° C., 5% CO2 growth media was aspirated and cells lysed in 15 μl of buffer containing 10 mM TRIS pH7.4, 100 mM NaCl, 1 mM EDTA, 1 mM EGTA, 1 mM NaF, 20 mM Na4P2O7, 2 mM Na3VO4, 1% Triton X-100, 10% glycerol, 0.1% SDS and 0.5% deoxycholate.

[2] abbreviates: 6His tagged GLS protein (amino acids 63-669), recombinant; read-out: Assay a) enz IC50.
The mark [3] stands for this setting: NCI-H1703 cells, 5 days; read-out: Assay c) Prolif Mean IC50.
[4] abbreviates: Homo sapiens, NCI-H1703, 120 h, NCI-H1703 cells, 5 days; read-out: Assay c) Prolif Mean IC50.

Like-named read-outs stand apart in the source and are kept apart here.

The results in this text go back to patent US10323028B2, “1,3,4-thiadiazole compounds and their use in treating cancer” (AstraZeneca AB, priority 2015, dated 2019).

As usually defined, the IC50 is the midpoint of a concentration-inhibition curve.

GLS1, sequence (O94925 63-669): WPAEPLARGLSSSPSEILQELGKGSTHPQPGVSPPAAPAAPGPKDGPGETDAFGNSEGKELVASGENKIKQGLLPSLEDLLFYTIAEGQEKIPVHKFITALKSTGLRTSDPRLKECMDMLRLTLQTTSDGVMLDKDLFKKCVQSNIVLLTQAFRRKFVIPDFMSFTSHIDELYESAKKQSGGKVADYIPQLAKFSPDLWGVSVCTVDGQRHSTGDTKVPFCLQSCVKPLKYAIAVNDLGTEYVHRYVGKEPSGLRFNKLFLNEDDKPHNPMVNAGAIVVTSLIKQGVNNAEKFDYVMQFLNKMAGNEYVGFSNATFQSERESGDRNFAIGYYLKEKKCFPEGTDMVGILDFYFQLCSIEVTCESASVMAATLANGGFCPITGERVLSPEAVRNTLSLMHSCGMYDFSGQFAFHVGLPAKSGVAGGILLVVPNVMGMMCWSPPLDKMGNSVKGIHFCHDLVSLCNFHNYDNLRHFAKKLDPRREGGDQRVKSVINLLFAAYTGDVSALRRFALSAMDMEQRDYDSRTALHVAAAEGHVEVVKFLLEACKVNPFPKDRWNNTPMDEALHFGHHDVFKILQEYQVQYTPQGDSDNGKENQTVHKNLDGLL

In the case of `CO[C@H](C(=O)Nc1nnc(N[C@@H]2CCN(c3nccnn3)C2)s1)c1cccc(N2CC(F)(F)C2)c1` (single isomer, unassigned) [14(b)], the figures for the IC50 at GLS1 (setting [2]) and in the assay with NCI-H1703 cells (setting [3]) were 660 nM and 156 nM, respectively.

As to `CO[C@H](C(=O)Nc1nnc(N[C@@H]2CCN(c3nccnn3)C2)s1)c1cccc(N2CC(F)C2)c1` (single isomer, unassigned) [15(b)], the results for the IC50 on GLS1 (setting [2]) and with NCI-H1703 cells (setting [3]) were 1310 nM and 376 nM, respectively.

Regarding `COc1cc(OC)cc([C@H](OC)C(=O)Nc2nnc(N[C@@H]3CCN(c4nccnn4)C3)s2)c1` (single isomer, unassigned) [16(b)], the IC50 on GLS1 (setting [2]) worked out at 689 nM.

Take `COC[C@H](C(=O)Nc1nnc(N[C@@H]2CCN(c3ccc(C)nn3)C2)s1)c1ccccc1` (single isomer, unassigned) [45(b)]: the IC50 on GLS1 (read-out: Assay a) enz IC50) was found to be 146 nM; in assay [1] it was 11.3 nM.

For `CO[C@H](C(=O)Nc1nnc(N[C@@H]2CCN(c3cccnn3)C2)s1)c1cccc(N2CC(F)C2)c1` (single isomer, unassigned) [Example 1(a)], the figures for the IC50 (at GLS1 (setting [2]); in assay [1]) were 20.6 nM and 0.83 nM, respectively.

On to `CO[C@H](C(=O)Nc1nnc(N[C@@H]2CCN(c3cccnn3)C2)s1)c1cccc(N2CC(F)C2)c1` (single isomer, unassigned) [Example 1(b)], for which the IC50 came out at 72.6 nM at GLS1 (read-out: Assay a) enz IC50) and 18.4 nM in assay [1].

`COC1CN(c2cccc([C@H](OC)C(=O)Nc3nnc(N[C@@H]4CCN(c5nccnn5)C4)s3)c2)C1` (single isomer, unassigned) [Example 13(a)]: the concentration for half-maximal inhibition (IC50) at GLS1 (setting [2]) was 75.1 nM.

Take `CO[C@H](C(=O)Nc1nnc(N[C@@H]2CCN(c3nccnn3)C2)s1)c1cccc(N2CC(F)(F)C2)c1` (single isomer, unassigned) [Example 14(a)]: the half-inhibitory concentration (IC50) came to 91.5 nM at GLS1 (setting [2]) and 5.89 nM with NCI-H1703 cells (setting [3]).

On to `CO[C@H](C(=O)Nc1nnc(N[C@@H]2CCN(c3nccnn3)C2)s1)c1cccc(N2CC(F)C2)c1` (single isomer, unassigned) [Example 15(a)], for which the IC50 came to 77.6 nM at GLS1 (setting [2]) and 11.6 nM in the assay with NCI-H1703 cells (setting [3]).

For the compound `COc1cc(OC)cc([C@H](OC)C(=O)Nc2nnc(N[C@@H]3CCN(c4nccnn4)C3)s2)c1` (single isomer, unassigned) [Example 16(a)], the IC50 on GLS1 (setting [2]) came to 25.2 nM; with NCI-H1703 cells (setting [4]), 3.49 nM.

Consider `COC(C(=O)Nc1nnc(N[C@@H]2CCN(c3nccnn3)C2)s1)c1cccc(C2COC2)c1` (single isomer, unassigned) [Example 24], for which the IC50 at GLS1 (setting [2]) stood at 52.6 nM; in assay [1] it was 3.48 nM; with NCI-H1703 cells (setting [3]), 29.1 nM.

For the compound `COC(C(=O)Nc1nnc(N[C@@H]2CCN(c3nccnn3)C2)s1)c1cccc(C2COC2)c1` (single isomer, unassigned) [Example 25], the results for the IC50 (at GLS1 (setting [2]); in assay [1]; with NCI-H1703 cells (setting [3])) were 1840 nM, 86.1 nM and 831 nM, respectively.

Consider `COC(C(=O)Nc1nnc(N[C@@H]2CCN(c3ccc(F)nn3)C2)s1)c1cccc(N2CC(F)C2)c1` (single isomer, unassigned) [Example 27], for which the half-maximal inhibitory concentration (IC50) on GLS1 (setting [2]) turned out to be 149 nM; in assay [1] it was 1.4 nM; in the assay on NCI-H1703 cells (setting [3]) it was 13.5 nM.

As for `COC(C(=O)Nc1nnc(N[C@@H]2CCN(c3ccc(F)nn3)C2)s1)c1cccc(N2CC(F)C2)c1` (single isomer, unassigned) [Example 28], the IC50 stood at 195 nM on GLS1 (setting [2]), 51.5 nM in assay [1] and 262 nM with NCI-H1703 cells (setting [3]).

In the case of `CCOC(C(=O)Nc1nnc(N[C@@H]2CCN(c3cccnn3)C2)s1)c1cccc(N2CC(F)(F)C2)c1` (single isomer, unassigned) [Example 29], the IC50 is 51.1 nM at GLS1 (setting [2]), 0.404 nM in assay [1] and 1.96 nM in the assay with NCI-H1703 cells (setting [3]).

On to `CCOC(C(=O)Nc1nnc(N[C@@H]2CCN(c3cccnn3)C2)s1)c1cccc(N2CC(F)(F)C2)c1` (single isomer, unassigned) [Example 30], for which the IC50 on GLS1 (setting [2]) was 1370 nM; in assay [1], 3.22 nM; with NCI-H1703 cells (setting [3]), 37.7 nM.

With `CCOC(C(=O)Nc1nnc(N[C@@H]2CCN(c3cccnn3)C2)s1)c1cccc(N2CC(F)C2)c1` (single isomer, unassigned) [Example 31], the results for the IC50 (on GLS1 (setting [2]); in assay [1]; in the assay with NCI-H1703 cells (setting [3])) were 96.8 nM, 0.573 nM and 3.21 nM, respectively.

As to `CCOC(C(=O)Nc1nnc(N[C@@H]2CCN(c3cccnn3)C2)s1)c1cccc(N2CC(F)C2)c1` (single isomer, unassigned) [Example 32], the IC50 was found to be 188 nM at GLS1 (setting [2]) and 98.7 nM in the assay with NCI-H1703 cells (setting [3]).

On to `COCC(C(=O)Nc1nnc(N[C@@H]2CCN(c3ccc(C)nn3)C2)s1)c1ccccc1` (single isomer, unassigned) [Example 45(a)], for which the 50% inhibitory concentration (IC50) on GLS1 (setting [2]) amounted to 1600 nM.

Turning to `COC[C@H](C(=O)Nc1nnc(N[C@@H]2CCN(c3ccc(C)nn3)C2)s1)c1ccccc1` (single isomer, unassigned) [Example 45(a)], the IC50 in assay [1] was found to be 147 nM.

In the case of `CCO[C@H](C(=O)Nc1nnc(N[C@@H]2CCN(c3cccnn3)C2)s1)c1cccc(N2CC(OC)C2)c1` [Example 22(a), (2S)-2-ethoxy-2-[3-(3-methoxyazetidin-1-yl)phenyl]-N-[5-[[(3R)-1-pyridazin-3-ylpyrrolidin-3-yl]amino]-1,3,4-thiadiazol-2-yl]acetamide], the IC50 in the assay with NCI-H1703 cells (setting [4]) came out at 5.35 nM.

As for `CCO[C@@H](C(=O)Nc1nnc(N[C@@H]2CCN(c3cccnn3)C2)s1)c1cccc(N2CC(OC)C2)c1` [Example 22(b), (2R)-2-ethoxy-2-[3-(3-methoxyazetidin-1-yl)phenyl]-N-[5-[[(3R)-1-pyridazin-3-ylpyrrolidin-3-yl]amino]-1,3,4-thiadiazol-2-yl]acetamide], the concentration for half-maximal inhibition (IC50) in assay [1] was found to be 10.6 nM; with NCI-H1703 cells (setting [4]) it was 178 nM.

As to `CCOC(C(=O)Nc1nnc(N[C@@H]2CCN(c3cccnn3)C2)s1)c1cccc(N2CC(OC)C2)c1` (stereo partly drawn) [Example 33, 2-ethoxy-2-[3-(3-methoxyazetidin-1-yl)phenyl]-N-[5-[[(3R)-1-pyridazin-3-ylpyrrolidin-3-yl]amino]-1,3,4-thiadiazol-2-yl]acetamide], in the assay on NCI-H1703 cells (setting [3]), the IC50 stood at 5.35 nM.

`CCOC(C(=O)Nc1nnc(N[C@@H]2CCN(c3cccnn3)C2)s1)c1cccc(N2CC(OC)C2)c1` (stereo partly drawn) [Example 34, 2-ethoxy-2-[3-(3-methoxyazetidin-1-yl)phenyl]-N-[5-[[(3R)-1-pyridazin-3-ylpyrrolidin-3-yl]amino]-1,3,4-thiadiazol-2-yl]acetamide]: the figures for the 50% inhibitory concentration (IC50) (in assay [1]; in the assay with NCI-H1703 cells (setting [3])) were 10.6 nM and 18 nM, respectively.

With `COC(C(=O)Nc1nnc(N[C@@H]2CCN(c3cccnn3)C2)s1)c1ccc(F)c(N2CC(F)(F)C2)c1` (stereo partly drawn) [Example 38, 2-[3-(3,3-difluoroazetidin-1-yl)-4-fluoro-phenyl]-2-methoxy-N-[5-[[(3R)-1-pyridazin-3-ylpyrrolidin-3-yl]amino]-1,3,4-thiadiazol-2-yl]acetamide], the 50% inhibitory concentration (IC50) at GLS1 (setting [2]) amounted to 190 nM; in the assay with NCI-H1703 cells (setting [3]), 303 nM.

As for `COC(C(=O)Nc1nnc(N[C@@H]2CCN(c3ccc(C)nn3)C2)s1)c1cccc(N2CC(F)(F)C2)c1` (stereo partly drawn) [Example 40, 2-[3-(3,3-difluoroazetidin-1-yl)phenyl]-2-methoxy-N-[5-[[(3R)-1-(6-methylpyridazin-3-yl)pyrrolidin-3-yl]amino]-1,3,4-thiadiazol-2-yl]acetamide], the IC50 on GLS1 (setting [2]) was 311 nM; in the assay on NCI-H1703 cells (setting [3]) it was 82.5 nM.

On to `COC(C(=O)Nc1nnc(N[C@@H]2CCN(c3ccc(F)nn3)C2)s1)c1cccc(N2CC(F)(F)C2)c1` (stereo partly drawn) [Example 41, 2-[3-(3,3-difluoroazetidin-1-yl)phenyl]-N-[5-[[(3R)-1-(6-fluoropyridazin-3-yl)pyrrolidin-3-yl]amino]-1,3,4-thiadiazol-2-yl]-2-methoxy-acetamide], for which the IC50 with NCI-H1703 cells (setting [3]) is 1.46 nM.
